Source: patent publication US20090197938A1, “Polyphenol Type Compounds, Compositions Containing Same and Use Thereof for Preventing or Treating Diseases Involving Abnormal Cell Proliferation” (Fluofarma, priority 2005, published 2009)

How the values were obtained:
[1] = test system: cancer cells; conditions: cited from earlier work
[2] = test system: cancer cells; experiment: Effect on cell proliferation at 24H and 48H; format: cell-based; conditions: 24H and 48H (figure)
Description: (§1) FIG. 1 represents the effect of different concentrations of Castaline on apoptosis at 24H and 48 H and cell proliferation at 24H and 48H.
(§2) FIG. 2 represents the effect of different concentrations of Vescalene on apoptosis at 24H and 48 H and cell proliferation at 24H and 48H.
(§3) FIG. 3 represents the effect of different concentrations of Castalagine on apoptosis at 24H and 48H and cell proliferation at 24H and 48H.
(§4) FIG. 4 represents the effect of different concentrations of Acutissimine on apoptosis at 24H and 48H and cell proliferation at 24H and 48H.

[3] = test system: DNA topoisomerase II; experiment: Inhibition of DNA topoisomerase II (decatenation); format: biochemical
Description: Inhibition of DNA Topoisomerase II

[4] = test system: cancer cells; experiment: Pro-apoptotic activity (apoptosis at 24H and 48H); format: cell-based; conditions: different concentrations, 24H and 48H (figure)
Description: as §1, §2, §3, §4

Row | Substance | proliferation of cancer cells with subtoxic doses (background statement) [1] | effect on cell proliferation with subtoxic doses [2] | Inhibition of decatenation (%) ([3]; compound concentration 1 μm) | Inhibition of decatenation (%) ([3]; compound concentration 10 μm) | pro-apoptotic activity [4]
1 | Acutissimine A [reference compound] | stimulate the proliferation of cancer cells | increases cell proliferation | – | – | –
2 | Castalagine [reference compound] | stimulate the proliferation of cancer cells | increases cell proliferation | – | – | –
3 | Castaline | – | does not increase cell proliferation in a noteworthy manner | 87.9 | 67.0 | has a pro-apototic activity
4 | Vescalene | – | does not increase cell proliferation in a noteworthy manner | 78.8 | 97.3 | has a pro-apoptotic activity
5 | Vescaline | – | – | 95.5 | 100 | –
6 | acutissimine B | stimulate the proliferation of cancer cells | – | – | – | –
7 | epiacutissamine A | stimulate the proliferation of cancer cells | – | – | – | –
8 | epiacutissamine B | stimulate the proliferation of cancer cells | – | – | – | –
9 | vescalagine | stimulate the proliferation of cancer cells | – | – | – | –
